The compounds below were run on HDAC (assay: HDAC inhibition assay using an aminocoumarin derivative of an omega-acetylated lysine as substrate). Conditions: compound concentration 10 nM.
Type: biochemical
Experimental: To determine the HDAC inhibitory properties of the compounds of the invention an assay was performed using an aminocoumarin derivative of an omega-acetylated lysine as substrate for the enzyme. This assay has been described in detail in the literature (Nucleic Acid Research 1999, 27, 2057–2058. Using the protocol described therein, the inhibitory effect of representative compounds was determined at a concentration of 10 nM. The observed inhibition rates for selected compounds are shown in Table 1: […]

| Compound | Inhibitory effect at 10 nM in % [%] |
| --- | --- |
| O=C(CCCCCCCN1c2cccc3cccc(c23)S1(=O)=O)NO [Example 1, 8-(1,1-dioxo-2H-naphtho[1,8-cd]isothiazol-2-yl)-octanoic acid hydroxyamide] | 64 |
| O=C(CCCCCCN1c2cccc3cccc(c23)S1(=O)=O)NO [Example 2, 7-(1,1-dioxo-2H-naphtho[1,8-cd]isothiazol-2-yl)-heptanoic acid hydroxyamide] | 90 |
| O=C(CCCCCCCN1C(=O)c2cccc3cccc1c23)NO [Example 3, 8-(2-oxo-2H-benzo[cd]indol-1-yl)-octanoic acid hydroxyamide] | 82 |
